# Data published in patent US10588892B2, “Pharmaceutical composition comprising sacubitril and valsartan” (priority 2017, dated 2020).
# Assay: Stability of polymorphic forms towards relative humidity
# Assay type: physicochemical
# Settings: for stability at low relative humidity: relative humidity below 40%, temperatures between 15 and 30° C.
# Procedure: Changes in humidity have less impact on the valsartan disodium form 2 as compared to the prior art form 1. […] By using valsartan disodium form 2 and by preparing the composition in an environment with relative humidity below 40%, at temperatures between 15 and 30° C., formation of the co-crystal is completely avoided. Any polymorphic form of sacubitril sodium can be used in accordance with the present invention. Preferably, the polymorphic form of sacubitril sodium is, like valsartan disodium form 2, very stable at relative humidity below […], at temperatures between 15 and 30° C. Particularly preferred polymorphic forms of sacubitril sodium to be used in a composition comprising a physical mixture with valsartan disodium form 2 are sacubitril sodium form 1 and form 2. Sacubitril sodium form 1 has an X-ray powder diffraction pattern comprising characteristic peaks at the following 2 theta (±0.2) angles: 3.14°, 6.25°, 11.97°, 12.73°, 13.78°, 16.50°, 18.35°, 19.93°, 21.56°, 23.75°, 26.20°, measured using a Cu Kα radiation. Sacubitril sodium form 2 has an X-ray powder diffraction pattern comprising characteristic peaks at the following 2 theta (±0.2) angles: 5.26°, 10.52°, 10.92°, 14.78°, 16.96°, 17.17°, 17.51°, 19.92°, 20.40°, 20.81°, 22.23°, measured using a Cu Kα radiation. […] The most preferred polymorphic form of sacubitril sodium to be used with valsartan disodium form 2 in a composition in accordance with the present invention is form 1.
stability at low relative humidity,impact of changes in humidity compared with prior art form 1,stability compared with prior art form 1 (example 11 of WO2002006253),Compound
stable compounds,–,–,"CCOC(=O)[C@H](C)C[C@@H](Cc1ccc(-c2ccccc2)cc1)NC(=O)CCC(=O)O [Sacubitril sodium form 1, sacubitril sodium]"
particularly stable,less impact,more stable,"CCCCC(=O)N(Cc1ccc(-c2ccccc2-c2nnn[nH]2)cc1)[C@H](C(=O)O)C(C)C [valsartan disodium form 2, valsartan disodium]"
